Source: the METLIN SMRT retention time set (Domingo-Almenara et al. 2019)

assay: gradient 5% acetonitrile 3 min, to 50% in 2 min, to 85% in 15 min, held 3 min, 100 µL/min; details: column: Zorbax Extend-C18 2.1 x 50 mm; eluents: water / acetonitrile, 0.1% formic acid
Outline: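 Each retention time is based on an adduct peak selected computationally and verified by manual inspection. Measurements used HPLC–quadrupole time-of-flight mass spectrometry in positive and negative ionization mode on mixtures of ~100 pure standards. Chromatography ran on a Zorbax Extend-C18 column (2.1 × 50 mm, 1.8 μm) at 100 μL/min with water and acetonitrile, each containing 0.1% formic acid, and dead and dwell volumes of 40 μL and 900 μL.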

In order of rising RP-LC retention time:
1. O=C(CCCc1nc2cccnc2n1Cc1ccccc1)N1CCN(c2ncccn2)CC1  563 s
2. CC(C)c1nnc(-c2ccc(=O)n(CC(=O)N3CCN(c4ccccn4)CC3)c2)o1  570 s
3. CCn1nc(C)c(CCNC(=O)c2cc3c(=O)n(CCOC)ccc3nc2C)c1C  576 s
4. CCCN1CCN(C(=O)CN(C)S(=O)(=O)c2ccc3c(c2)CCCC(=O)N3)CC1  577 s
5. O=C(c1ccncn1)N1CC(n2cnnc2C2CCCO2)C1 (stereo unspecified)  580 s
6. Cc1cc(C)c2c(N3CCOCC3)nc(C(=O)NCC3CCCO3)nc2n1 (stereo unspecified)  585 s
7. O=c1ccc(-c2ccc(S(=O)(=O)N3CCN(c4ccccn4)CC3)s2)n[nH]1  595 s
8. O=C(c1n[nH]c(=O)c2ccccc12)N1C[C@H]2C[C@H](C1)[C@H]1CCCC(=O)N1C2  598 s
9. COc1ccccc1-c1nnc(N)s1  598 s
10. CN(C)C[C@@H]1CN(c2ncccn2)C[C@H]1NC(=O)NCCc1ccccc1  600 s
11. N#Cc1ccccc1CN1CCC(N2CC(OCC3CC3)C23CCCCC3)CC1 (stereo unspecified)  607 s
12. COc1ccc(N2CCN(c3nc(C(=O)NCCN(C)C)cs3)CC2)cc1  618 s
13. CCc1nccn1Cc1nc(-c2ccc(OC)cc2)no1  620 s
14. O=C(COc1ccccc1Cl)N1CCN(c2cc(-c3ccccc3)ncn2)CC1  628 s
15. COc1ccc(OC)c(-c2[nH]ncc2CN2CC(F)(F)C[C@H]2CN2CCCCC2)c1  632 s
16. O=C(NC1CC1)C1CCCN(C(=O)c2ccccc2F)C1 (stereo unspecified)  634 s
17. Cn1cc(-c2ccncc2)cc1C(=O)N1CCN(c2ccccc2F)CC1  650 s
18. O=C(CCn1cnc2cc(-c3noc(C4CC(=O)N(c5ccccc5)C4)n3)ccc21)N1CCCC1 (stereo unspecified)  659 s
19. Cc1cc(N2CCN(C(=O)Nc3ccc4c(c3)OCO4)CC2)nc(N2CCCCC2)n1  660 s
20. CC1(C)CC(=O)CC(C)(C)N1O  666 s
21. COc1ccccc1NC(=O)N1CCC(c2cc(N)on2)CC1  678 s
22. Cc1cc(C)n2c(Nc3cccc(C(F)(F)F)c3)c(-c3ccc(O)cc3)nc2n1  697 s
23. COc1ccc(Cl)cc1N1CC(c2nc(-c3ccccn3)no2)CC1=O (stereo unspecified)  724 s
24. CC(C)N(C(=O)Cn1c(CN(C)C(=O)c2ccco2)nc2ccccc21)c1ccccc1  725 s
25. CCOC(=O)c1[nH]c(C)c(C(=O)N2CCC(CC(=O)N(C)Cc3ccco3)CC2)c1C  729 s
26. O=C(CN1C(=O)CCC1=O)N1CCC(Oc2nc3ccc(F)cc3s2)CC1  734 s
27. Nc1cc(C2CCN(C(=O)/C=C/c3ccccc3Cl)CC2)no1  747 s
28. COc1ccc(C(=O)NC2CCN(c3ccc(F)cc3)C2=O)cc1 (stereo unspecified)  756 s
29. COc1ccc(N2CCN(C(=O)C3CCCN(C(=O)c4[nH]c(C)cc4C)C3)CC2)cc1 (stereo unspecified)  763 s
30. CC(NC(=O)c1ccccc1)c1nc(-c2ccc(NS(C)(=O)=O)cc2)no1 (stereo unspecified)  766 s
31. Cc1ccn(-c2ccc(Nc3ccc(NC(=O)c4ccc(Br)o4)cc3)nn2)n1  776 s
32. CCC(C)NC(=O)c1nc2cc(C)c(C)cc2n(C)c1=O (stereo unspecified)  798 s
33. CC(=O)c1ccc(NC(=O)Cn2nc3c4cc(-c5ccccc5)nn4ccn3c2=O)cc1  818 s
34. Cc1cc(Cl)ccc1NC(=O)c1cn(C)c2ncccc12  827 s
35. CN(C)S(=O)(=O)c1ccc(-c2nnc(C(=O)NCc3ccccc3)o2)cc1  831 s
36. CC1Oc2ccccc2OC1C(=O)NCc1ccsc1 (stereo unspecified)  832 s
37. COCCN(CC(=O)N1CCc2sccc2C1COc1ccc(Cl)cc1)C(=O)COC (stereo unspecified)  839 s
38. O=C(Cc1ccc(Cl)cc1)N1CCN(c2cc(-c3ccccc3)[nH]n2)CC1  841 s
39. CC1(C)CC(=O)c2c(nc(N3CCN(c4ccccn4)CC3)nc2Nc2ccccc2)C1  841 s
40. CCOC(=O)c1c(NCCc2cccs2)c2cccc(Cl)c2[nH]c1=O  844 s
41. O=C(c1nnn2c1COC(c1ccccc1)C2)N1CCN(C(=O)C2(c3ccccc3)CC2)CC1 (stereo unspecified)  850 s
42. COc1ccc(CC(=O)N2CCCC2c2nc(-c3ccccc3OC)no2)cc1 (stereo unspecified)  853 s
43. Cc1cc(OCC(=O)NCc2ccc(Cl)cc2)nc(N2CCN(c3ccccc3)CC2)n1  868 s
44. Cc1nc(-c2csc(S(=O)(=O)N3CCCC(C(=O)Nc4ccc5c(c4)OCCO5)C3)c2)no1 (stereo unspecified)  880 s
45. O=c1c2nc(-c3ccc(F)cc3)cn2ccn1-c1ccc(F)c(Cl)c1  888 s
46. O=[N+]([O-])c1ccccc1S(=O)(=O)N1CCc2ccccc21  893 s
47. Cc1nn(-c2ccccc2)c(C)c1S(=O)(=O)N1CCC(C(=O)Nc2ccc3c(c2)OCO3)CC1  905 s
48. O=C(Cn1cnc2c(-c3ccc(Cl)cc3)csc2c1=O)N1CCCCC1  922 s
49. CCOC(=O)C1CCN(C(c2cccnc2)c2c(NC(=O)c3ccco3)sc(C)c2C)CC1 (stereo unspecified)  926 s
50. CCn1c(C)c(-c2nc(C3CC3)no2)c(S(=O)(=O)NCC(C)C)c1C  930 s
51. COc1ccc2oc(-c3ccccc3)c(C(=O)Nc3nccs3)c2c1  931 s
52. O=C(Nc1ccc(F)cc1F)C1CCCN(C(=O)Cc2cccc3ccccc23)C1 (stereo unspecified)  958 s
53. COc1ccc(-c2nc(-c3cn(Cc4ccc(C)cc4)nn3)no2)cc1OC  961 s
54. CCNS(=O)(=O)c1cccnc1Nc1cccc(F)c1  963 s
55. Cc1cccc(NS(=O)(=O)c2ccc3c(c2)C(=O)N(C)c2ncccc2O3)c1C  970 s
56. CC(C)N1C(=O)c2cccnc2Sc2cc(NC(=O)c3c(F)cccc3Cl)ccc21  973 s
57. CC(CNC(=O)c1cc2sccc2n1C)c1ccccc1 (stereo unspecified)  983 s
58. COc1nc2ccccc2nc1N1CCCC(C(=O)NC2CCCC2)C1 (stereo unspecified)  1000 s
59. COc1ccc(-n2cc(C(=O)Nc3ccc(OC)cc3OC)nn2)cc1  1000 s
60. CC(C)CC(NC(=O)OCc1ccccc1)C(=O)NC(Cc1ccccc1)C(=O)CCl (stereo unspecified)  1010 s
61. CCNC(=O)c1c(C)c(-c2ccccc2)n(C)c1C  1010 s
62. COc1cccc(/C=C/C(=O)NC2(c3nc(C(C)C)no3)CCCCC2)c1  1050 s
63. COc1ccc(CN2C=C(C(=O)OCc3nc(-c4cccs4)no3)C(C)=NS2(=O)=O)cc1  1090 s
64. Cc1cccc(-c2nnc(-c3cccc(S(=O)(=O)N4CCCCCC4)c3)o2)c1  1190 s
65. CCOc1ccc(-c2nc(Cc3noc(-c4ccccc4)n3)c(C)o2)cc1  1200 s
66. Cc1cc(C)c(C)c(S(=O)(=O)N2CCCC2c2nc(-c3cccc(F)c3)no2)c1C (stereo unspecified)  1360 s
